Tested on: SARS-CoV-2 Omicron BA.5
Assay: cytopathic effects (CPE) inhibition assay in Vero E6 cells
Assay type: cell-based
Conditions: result in words

Compound: C[C@@H]1O[C@@H](O[C@H]2[C@H](Oc3cc(O)c4c(=O)cc(-c5ccc(O)cc5)oc4c3)O[C@H](CO)[C@@H](O)[C@@H]2O)[C@H](O)[C@H](O)[C@H]1O [RHO, rhoifolin]
- inhibition of the SARS-CoV-2 Omicron BA.5 variant: failed to inhibit
